According to US20190008803A1, “COMBINATIONS OF OPIOID RECEPTOR LIGANDS AND CYTOCHROME P450 INHIBITORS” (TREVENA, INC., priority 2015, published 2019):

Key:
mice = experiment: Hot plate assay for antinociception, subcutaneous dosing; assay type: in vivo, mouse; settings: for ED50: 0.5 h, re-tested 30 min after drug administration; for ED50 / analgesic effect in the mouse hot plate assay compared to morphine: SC
Description: The hot plate assay is adapted from the procedure originally described by O'Callaghan and Holtzman (JPET, 192, 497, 1975) and is commonly used to determine the potential analgesic efficacy of opioid agonists. The antinociceptive effect of the composition(s) described herein in the hot plate is expressed in % MPE (Maximum Possible Effect).
Rats (175-250 g) or mice (20-30 g) acclimated to the vivarium for at least 48 hr prior to behavioral testing. Test drugs were administered by the subcutaneous (SC) route. Animals were placed on the hot plate, which the temperature was set at 50-56° C., depending on the in vitro potency of the compound. A cutoff time of 30-60 seconds was used depending on the temperature of the hot plate so that the paws of the animal displaying analgesia, was not damaged by the heat stimulus. The cutoff time was considered a 100% response to the thermal insult. Prior to drug treatment, each animal was tested to determine the baseline response. Thirty minutes after drug administration, animals were re-tested. Dose response experiments were performed to evaluate the potency of the test compound when various doses were administered at the point when maximal analgesia is observed.
The % MPE was calculated according to the following formula:
% MPE=[(Post drug latency−baseline latency)/(60 or 30−baseline latency)]×100
ED50 values were calculated from the mean % MPE values for each group using log dose-response curves by least-squares regression analysis.

CYP2D6 = biological target: T1, CYP2D6 (Homo sapiens, UniProt P10635); experiment: Metabolic stability in human liver microsomes with/without quinidine: percent contribution of CYP2D6; assay type: in vitro ADME; settings: human liver microsomes 0.25 mg/mL, test compound 1 μM, quinidine 1 μM; from intrinsic clearance without and with inhibitor
T1 construct: incubations of test compound (1 μM) with human liver microsomes (0.25 mg/mL); from tissue; host or cells: human liver microsomes
Description: (§1) Compounds 141, 208, 246, 265, 267, 271 or 277 were analyzed to determine whether they are metabolized by CYP2D6 and/and/or CYP3A4. The studies were designed to evaluate the metabolic stability of compounds in human liver microsomes for the purpose of determining the percent contribution of CYP2D6 and CYP3A4 to their in vitro metabolism. […] Incubations are performed with or without CYP specific inhibitors. Incubations with the CYP2D6 direct inhibitor, quinidine (1 μM) quantify the percent contribution of CYP2D6 to metabolism. Incubations with the CYP3A4 metabolism-dependent inhibitor, troleandomycin (50 μM), define the percent contribution of CYP3A4. The percentage of CYP2D6 and CYP3A4 contribution is calculated using intrinsic clearance values in the absence and presence of the specific CYP inhibitor (Gibbs et al. 2006).

CYP3A4 = biological target: T2, CYP3A4 (Homo sapiens, UniProt P08684); experiment: Metabolic stability in human liver microsomes with/without troleandomycin: percent contribution of CYP3A4; assay type: in vitro ADME; settings: human liver microsomes 0.25 mg/mL, test compound 1 μM, troleandomycin 50 μM; from intrinsic clearance without and with inhibitor
T2 construct: incubations of test compound (1 μM) with human liver microsomes (0.25 mg/mL); from tissue; host or cells: human liver microsomes
Description: as §1

[1] = Oral availability in humans with low versus normal CYP2D6 activity; assay type: in vivo; settings: human with low CYP2D6 activity compared to humans with normal CYP2D6 activity (data not shown)

T2 sequence (P08684 whole entry): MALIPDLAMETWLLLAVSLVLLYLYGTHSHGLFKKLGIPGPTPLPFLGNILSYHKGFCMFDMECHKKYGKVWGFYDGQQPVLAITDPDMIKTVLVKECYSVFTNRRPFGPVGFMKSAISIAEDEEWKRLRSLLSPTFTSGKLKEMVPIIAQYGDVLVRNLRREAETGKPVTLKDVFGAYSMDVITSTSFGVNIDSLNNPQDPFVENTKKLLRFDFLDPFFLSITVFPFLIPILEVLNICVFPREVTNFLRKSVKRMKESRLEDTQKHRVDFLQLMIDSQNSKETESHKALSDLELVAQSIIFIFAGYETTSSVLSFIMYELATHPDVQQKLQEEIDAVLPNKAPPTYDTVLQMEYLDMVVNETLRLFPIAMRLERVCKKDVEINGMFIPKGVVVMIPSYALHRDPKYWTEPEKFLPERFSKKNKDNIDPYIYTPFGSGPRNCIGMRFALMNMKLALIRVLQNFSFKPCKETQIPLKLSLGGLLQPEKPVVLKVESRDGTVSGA
T1 sequence (P10635 whole entry): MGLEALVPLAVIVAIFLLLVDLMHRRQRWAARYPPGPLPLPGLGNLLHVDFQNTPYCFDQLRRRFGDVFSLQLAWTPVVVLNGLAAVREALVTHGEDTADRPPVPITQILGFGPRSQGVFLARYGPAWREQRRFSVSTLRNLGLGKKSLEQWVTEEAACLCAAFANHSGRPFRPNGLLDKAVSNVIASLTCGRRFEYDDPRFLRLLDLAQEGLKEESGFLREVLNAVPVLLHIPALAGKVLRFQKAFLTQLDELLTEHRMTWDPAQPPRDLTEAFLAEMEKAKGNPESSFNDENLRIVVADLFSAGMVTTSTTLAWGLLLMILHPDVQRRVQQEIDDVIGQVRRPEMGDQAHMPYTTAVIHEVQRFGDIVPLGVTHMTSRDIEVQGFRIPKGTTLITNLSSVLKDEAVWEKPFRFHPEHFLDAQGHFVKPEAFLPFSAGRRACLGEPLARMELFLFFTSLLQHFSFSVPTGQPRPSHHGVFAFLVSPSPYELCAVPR

Compound	CYP2D6 contribution (CYP2D6)	CYP3A4 contribution (CYP3A4)	ED50 (mice; mouse hot plate)	other results
Fc1ccc([C@]2(CCNCc3ccccc3)CCOC3(CCCC3)C2)cc1 [Compound 81, benzyl({2-[(9R)-9-(4-fluorophenyl)-6-oxaspiro[4.5]decan-9-yl]ethyl})amine]				% MPE (mice; mouse hot plate, at 10 mg/kg SC): 100% at 10
COc1ccsc1CNCC[C@@]1(c2ccccn2)CCOC2(CCCC2)C1 [Compound 140, [(3-methoxythiophen-2-yl)methyl]({2-[(9R)-9-(pyridin-2-yl)-6-oxaspiro[4.5]decan-9-yl]ethyl})amine]	50%	50%		oral availability [1]: substantially higher oral availability
c1ccc(CNCC[C@@]2(c3ccccn3)CCOC3(CCCC3)C2)cc1 [Compound 28]			1.2 mg/kg	analgesic effect in the mouse hot plate assay compared to morphine (mice): more robust analgesic effect
Cc1cccc(CNCC[C@@]2(c3ccccn3)CCOC3(CCCC3)C2)c1 [Compound 246]	80%	25%		
Clc1cncc(CNCC[C@@]2(c3ccccn3)CCOC3(CCCC3)C2)c1 [Compound 267]	8%	55%		
Fc1cncc(CNCC[C@@]2(c3ccccn3)CCOC3(CCCC3)C2)c1 [Compound 265]		>50%		
Cc1cccc(CNCC[C@@]2(c3ccc(F)cc3)CCOC3(CCCC3)C2)c1 [Compound 122, {2-[(9R)-9-(4-fluorophenyl)-6-oxaspiro[4.5]decan-9-yl]ethyl}[(3-methylphenyl)methyl]amine]			1.1 mg/kg	analgesic effect in the mouse hot plate assay compared to morphine (mice): more robust analgesic effect
Cc1ccc(CNCC[C@@]2(c3ccc(F)cc3)CCOC3(CCCC3)C2)s1 [Compound 145]			5.9 mg/kg	
FC(F)(F)c1ccnc(CNCC[C@@]2(c3ccccn3)CCOC3(CCCC3)C2)c1 [Compound 277]	>20%	>50%		
Brc1csc(CNCC[C@@]2(c3ccccn3)CCOC3(CCCC3)C2)c1 [Compound 208]	3%	17%		
FC(F)(F)c1cncc(CNCC[C@@]2(c3ccccn3)CCOC3(CCCC3)C2)c1 [Compound 271]	3%	45%		
CN1CC[C@]23c4c5ccc(O)c4O[C@H]2[C@@H](O)C=C[C@H]3[C@H]1C5 [Morphine, reference compound]			3.8 mg/kg	efficacy in the mouse hot plate (mice; at a dose of 10 mg/kg SC): full efficacy
